Experimental findings from EP4682145A1, “BENZOHETEROCYCLIC COMPOUND, AND PREPARATION METHOD THEREFOR AND USE THEREOF” (Cascade Pharmaceuticals, Inc., priority 2023, dated 2024) are described below.

Series [1] is described as follows: Pharmacokinetic evaluation in ICR mice (intravenous and gavage). In kind it is in vivo. Particulars: for CL_obs / Vss_obs / half-life: Intravenous Administration (5 mg/kg); for bioavailability: gavage 10 mg/kg versus intravenous 5 mg/kg. How it is done: The bioavailability and pharmacokinetic behavior of the compounds were evaluated in mice. 6 male ICR mice with similar body weights were selected, among which 3 mice were administered a single gavage dose of 10 mg/kg, and the other 3 mice were intravenously administered a single dose of 5 mg/kg. Blood samples were collected at 5 minutes (intravenous administration), 15 minutes, 30 minutes, 1 hour, 2 hours, 4 hours, and 7 hours after administration. The plasma samples were analyzed for concentration by LCMS/MS, and the pharmacokinetic parameters of the compounds were analyzed using the PKSolver free tool and non-compartmental analysis (NCA) software.
Experimental animals: Each compound test group included 6 healthy male ICR mice, weighing 18-25 g, purchased from Charles River, which were randomly divided into 2 groups with 3 mice each.
Preparation of formulations: A certain amount of the compound was weighed and added to 2% DMSO + 15% Solutol + 83% physiological saline to form a clear solution.
Dosage: ICR mice were fasted overnight and administered the compound at a dose of 10 mg/kg via gavage or 5 mg/kg via intravenous injection. The dosing volumes for gavage and intravenous administration were 10 mL/kg and 5 mL/kg, respectively. Uniform feeding was conducted 2 hours after administration.
Sample collection: Approximately 30 µL of blood was collected from the great saphenous vein at 5 minutes (intravenous administration), 15 minutes, 30 minutes, 1 hour, 2 hours, 4 hours, and 7 hours after administration. The blood was placed into commercially available tubes containing K2-EDTA. The blood samples were then centrifuged at 4°C and 4600 rpm for 5 minutes to obtain plasma samples. All plasma samples were rapidly frozen on dry ice and maintained at -70°C until LCMS/MS analysis was performed.
Sample preparation: 10 µL of plasma sample was aspirated and precipitated with a methanol solution containing 50 nmol/L of α-naphthoflavone (internal standard). The mixture was thoroughly mixed and centrifuged at 4°C and 14000 rpm for 5 minutes. Then, 75 µL of the supernatant was mixed with 75 µL of methanol for LCMS/MS analysis.

In series [2] the target is T1, human FFAR1 (GPR40) (Homo sapiens, UniProt O14842).
T1 construct: Flag; expressed in transfected cells; host or cells: HEK293T
T1 sequence (O14842 whole entry): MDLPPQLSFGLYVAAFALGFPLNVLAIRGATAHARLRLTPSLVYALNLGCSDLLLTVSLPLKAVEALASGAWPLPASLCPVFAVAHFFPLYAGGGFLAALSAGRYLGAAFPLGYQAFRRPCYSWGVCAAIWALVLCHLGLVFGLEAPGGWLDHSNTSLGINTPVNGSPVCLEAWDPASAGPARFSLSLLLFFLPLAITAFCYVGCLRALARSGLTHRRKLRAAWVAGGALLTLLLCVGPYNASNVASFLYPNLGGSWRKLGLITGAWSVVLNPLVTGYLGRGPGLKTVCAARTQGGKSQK
Description: NFAT-RE-based reporter gene activity assay (Dual-Glo luciferase) for GPR40 agonistic activity in co-transfected HEK293T cells. It counts as cell-based. Particulars: 4-hour treatment; for Efficacy (%): class symbols. The method in brief:
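HEK293T cells co-transfected with human FFAR1, NFAT-RE firefly luciferase and TK-Renilla plasmids; 24 h later treated 4 h with 10 half-log compound dilutions from 1 µM. Firefly/Renilla ratio normalised to DMSO; EC50 from four-parameter fit.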

For series [3], the system named is C57BL6/J mice. The series is described as follows: In vivo pharmacodynamic assay for non-alcoholic fatty liver disease (high-fat, high-cholesterol, high-fructose diet mice). Particulars: 1 mpk oral gavage once daily for 28 days. As for the experimental part: Normal male C57BL6/J mice ([…]) were fed a high-fat, high-cholesterol, high-fructose diet (D09100310, Research Diets) for 20 weeks. Based on body weight and biochemical data, the mice were randomly divided into groups, with 6 mice per group. The compound 169 (0.03, 0.1, and 0.6 mg/kg) was administered via oral gavage. The positive control was MGL3196 (1 mg/kg), and the blank control group consisted of mice of the same strain and age fed a normal diet for the same duration. The blank control and model control groups were given the vehicle (15% solutol + 85% DDW), totaling 6 groups. Administration was performed once daily for 28 days. After overnight fasting, on day 29 at the experimental endpoint, blood was collected from the heart after CO2 euthanasia. Serum ALT and AST biochemical indicators were measured, and liver tissue was harvested for hepatic hydroxyproline content determination.
Blood was collected using anticoagulant-free tubes, allowed to stand at room temperature for 30 minutes, and then centrifuged at 4000 rpm for 10 minutes to separate serum, which was tested by Dian Diagnostics. Approximately 50 mg of liver tissue was taken from each mouse and tested according to the hydroxyproline assay kit method (Nanjing Jiancheng, Cat. No.: A030-2-1).
Data were expressed as mean ± standard deviation. One-way ANOVA was employed for statistical analysis, with p < 0.05 considered statistically significant.

Setting [4] is: male, ICR, mouse, plasma, po, Gavage Administration (10 mg/kg).
Where [5] appears, read: mouse, plasma, po, Gavage Administration (10 mg/kg).
The mark [6] stands for this setting: mouse, plasma, po, Gavage Administration (10 mg/kg), read-out: AUC0-7 h.

Some results are limits rather than exact numbers.

Regarding `COc1ccc(F)c(N2CCC(c3oc4cc([C@@H](CC(=O)O)C5CC5)ccc4c3-c3cnn(C(C)(C)C)c3)CC2)c1` [Compound 89], in series [1], the “CL_obs” value is listed as 1.3 mL/min/kg and the “Vss_obs” value worked out at 0.546 L/kg. In addition, in series [1] (male, ICR, mouse, plasma), the half-life was 5.46 h. Further, in series [1] (male, ICR, mouse, plasma, oral), the bioavailability was 73.7%. Moreover, in series [1] (setting [4]), the peak level (Cmax) was 11100 ng/mL and the Tmax worked out at 2 h. In addition, the AUC(0-t) in series [1] (male, ICR, mouse, plasma, po, Gavage Administration (10 mg/kg), read-out: AUC0-7 h) was found to be 92200 ng·h/mL. In addition, in series [2], the concentration giving a half-maximal response (EC50) was 100 to 500 nM and the “Efficacy (%)” value is listed as “†† (150 ≥ Efficacy (%) > 100)”.
With `COc1cccc(N2CCC(c3oc4cc([C@@H](CC(=O)O)C5CC5)ccc4c3-c3cccc(C(C)(C)C)c3)CC2)c1` [Compound 12], in series [1], the “CL_obs” value was found to be 1.9 mL/min/kg and the “Vss_obs” value is 0.52 L/kg. The compound also showed a half-life in series [1] (mouse, plasma) of 5.02 h. Further, in series [1] (setting [5]), the concentration peaked (Cmax) at 6580 ng/mL and the Tmax was 2 h. Moreover, the AUC(0-t) at 7 h in series [1] (setting [6]) was 38000 ng·h/mL. For the same compound, in series [1] (mouse, plasma, po), the bioavailability is 44.6%. Besides, in series [2], the EC50 lay in the range of 10 to 100 nM and the “Efficacy (%)” value is “†† (150 ≥ Efficacy (%) > 100)”.
As to `COc1cccc(N2CCC(c3oc4cc([C@@H](CC(=O)O)C5CC5)ccc4c3-c3cnn(C(C)(C)C)c3)CC2)c1` [Compound 38], in series [1], the “CL_obs” value stood at 2.3 mL/min/kg and the “Vss_obs” value stood at 0.405 L/kg. Moreover, in series [1] (mouse, plasma), the half-life is 2.41 h. Further, in series [1] (setting [5]), the concentration peaked (Cmax) at 8600 ng/mL and the Tmax came out at 2 h. Also, in series [1] (setting [6]), the AUC(0-t) at 7 h is 55400 ng·h/mL. This compound returned a bioavailability in series [1] (mouse, plasma, po) of 77.4%. Besides, in series [2], the 50% effective concentration (EC50) is 10 to 100 nM and the “Efficacy (%)” value is “††† (Efficacy (%) > 150)”.
With `COc1ccc(F)c(N2CCC(c3oc4cc([C@@H](CC(=O)O)C5CC5)ccc4c3-c3cccc(C(C)(C)C)c3)CC2)c1` [Compound 166], in series [1], the “CL_obs” value came out at 1.6 mL/min/kg and the “Vss_obs” value amounted to 0.668 L/kg. The compound also showed a half-life in series [1] (mouse, plasma) of 6.7 h. For the same compound, in series [1] (setting [5]), the Cmax came out at 4950 ng/mL and the Tmax came to 4 h. Moreover, the AUC(0-t) at 7 h in series [1] (setting [6]) came to 48100 ng·h/mL. The bioavailability in series [1] (mouse, plasma, po) was determined as 48%. For the same compound, in series [2], the EC50 is 10 to 100 nM and the “Efficacy (%)” value was “†† (150 ≥ Efficacy (%) > 100)”.
Regarding `CC(C)c1cc(Oc2c(Cl)cc(-n3nc(C#N)c(=O)[nH]c3=O)cc2Cl)n[nH]c1=O` [MGL3196, reference compound], in series [3] (liver), the “Hepatic Hydroxyproline” value came out at 173.63 ± 32.06 µg/g and the “Total Liver Hydroxyproline (µg/liver)” value is given as 313.58±98.24 µg/liver. Further, in series [3] (serum), the “ALT (U/L)” value was determined as 140±63.06 U/L and the “AST (U/L)” value stood at 242±67.42 U/L.
Regarding `COc1cccc(N2CCC(c3oc4cc([C@@H](CC(=O)O)C5CC5)ccc4c3-c3nc(C(C)C)cs3)CC2)c1` [Compound 109], in series [2], the half-maximal effective concentration (EC50) lay in the range of 100 to 500 nM and the “Efficacy (%)” value is “†† (150 ≥ Efficacy (%) > 100)”.
Take `CCOC(C)c1c(C2CCN(c3cccc(OC)c3)CC2)oc2cc([C@@H](CC(=O)O)C3CC3)ccc12` (stereo partly drawn) [Compound 407]: in series [2], the EC50 was in the range of 100 to 500 nM and the “Efficacy (%)” value is given as “††† (Efficacy (%) > 150)”.
Turning to `CC(C)(C)c1cccc(-c2c(C3CCN(c4ccc(F)cc4)CC3)oc3cc(C(CC(=O)O)C4CC4)ccc23)c1` (stereo not drawn) [Compound 7], in series [2], the half-maximal effective concentration (EC50) fell in the range of 100 to 500 nM and the “Efficacy (%)” value is reported as “†† (150 ≥ Efficacy (%) > 100)”.
For the compound `CCc1cccc(NC(=O)c2c(C3CCN(c4cccc(OC)c4)CC3)oc3cc(C(CC(=O)O)C4CC4)ccc23)c1` (stereo not drawn) [Compound 243], in series [2], the 50% effective concentration (EC50) is over 500 nM and the “Efficacy (%)” value is reported as “†† (150 ≥ Efficacy (%) > 100)”.
Regarding `COc1cccc(N2CCC(c3oc4cc(C(CC(=O)O)C5CC5)ccc4c3-c3nnc(C4(C)CC4)o3)CC2)c1` (stereo not drawn) [Compound 134], in series [2], the EC50 fell in the range of 100 to 500 nM and the “Efficacy (%)” value is “† (100 ≥ Efficacy (%) > 50)”.
On the same counts, the results for `COc1ccc(F)c(N2CCC(c3oc4cc(C(CC(=O)O)C5CC5)ccc4c3C(=O)NC(C)(C)C)CC2)c1` (stereo not drawn) [Compound 305] are 100 to 500 nM and “†† (150 ≥ Efficacy (%) > 100)”.
On the same counts, the results for `COc1cccc(N2CCC(c3oc4cc(C(CP(=O)(O)OC)C5CC5)ccc4c3-c3cnn(C(C)(C)C)c3)CC2)c1` (stereo not drawn) [Compound 70] are over 500 nM and “†† (150 ≥ Efficacy (%) > 100)”.
On the same counts, the results for `COc1cccc(N2CCC(c3oc4cc(C(CC(=O)O)C5CC5)ccc4c3-c3cccc(N(CC(C)(C)C)C(C)=O)n3)CC2)c1` (stereo not drawn) [Compound 148] are 100 to 500 nM and “†† (150 ≥ Efficacy (%) > 100)”.
For `COc1cccc(N2CCC(c3oc4cc(C(CC(=O)O)C5CC5)ccc4c3C(=O)N3CC4(CCC4)C3)CC2)c1` (stereo not drawn) [Compound 360], in series [2], the concentration for a half-maximal effect (EC50) was over 500 nM and the “Efficacy (%)” value was “††† (Efficacy (%) > 150)”.
Take `COc1cccc(N2CCC(c3oc4cc([C@@H](CC(=O)O)C5CC5)ccc4c3-c3cc(C)ccn3)CC2)c1` [Compound 146]: in series [2], the EC50 was in the range of 100 to 500 nM and the “Efficacy (%)” value is listed as “††† (Efficacy (%) > 150)”.
On the same counts, the results for `COc1ccc(F)c(N2CCC(c3oc4cc(C(C5CC5)C(C)(C)C(=O)O)ccc4c3-c3ccc(C(C)(C)C)cc3)CC2)c1` (stereo not drawn) [Compound 222] are 100 to 500 nM and “††† (Efficacy (%) > 150)”.
As for `COc1ccc(F)c(N2CCC(c3oc4cc(C(CC(=O)O)C5CC5)ccc4c3CC(C)=O)CC2)c1` (stereo not drawn) [Compound 395], in series [2], the EC50 lay within 100 to 500 nM and the “Efficacy (%)” value was “† (100 ≥ Efficacy (%) > 50)”.
In the same order, the values of `COc1ccc(F)c(N2CCC(c3oc4cc([C@@H](CC(=O)O)C5CC5)ccc4c3C(=O)Nc3cc(C(F)(F)F)ccc3Cl)CC2)c1` [Compound 340] are under 10 nM and “††† (Efficacy (%) > 150)”.
On the same counts, the results for `COc1ccc(F)c(N2CCC(c3oc4cc([C@H](C5CC5)C(F)C(=O)O)ccc4c3-c3ccc(C(C)(C)C)cc3)CC2)c1` (stereo partly drawn) [Compound 220] are 100 to 500 nM and “††††”.
In the case of `COc1cccc(N2CCC(c3oc4cc([C@@H](CC(=O)O)C5CC5)ccc4c3C(C)OCC(C)C)CC2)c1` (stereo partly drawn) [Compound 409], in series [2], the concentration for a half-maximal effect (EC50) was in the range of 10 to 100 nM and the “Efficacy (%)” value was “††† (Efficacy (%) > 150)”.
For `COc1cccc(N2CCC(c3oc4cc([C@@H](CC(=O)O)C5CC5)ccc4c3C(=O)Nc3cc(C#N)ccc3Cl)CC2)c1` [Compound 282], in series [2], the EC50 is 10 to 100 nM and the “Efficacy (%)” value is “†† (150 ≥ Efficacy (%) > 100)”.
Regarding `COc1cccc(N2CCC(c3oc4cc(C(CC(=O)O)C5CC5)ccc4c3-c3cnc(C)s3)CC2)c1` (stereo not drawn) [Compound 101], in series [2], the EC50 fell in the range of 100 to 500 nM and the “Efficacy (%)” value was “†† (150 ≥ Efficacy (%) > 100)”.
In the same order, the values of `COc1cccc(N2CCC(c3oc4cc([C@@H](CC(=O)O)C5CC5)ccc4c3-c3ncc(C(C)(C)C)s3)CC2)c1` [Compound 113] are at most 10 nM and “†† (150 ≥ Efficacy (%) > 100)”.
`COc1cccc(N2CCC(c3oc4cc(CC(C)C(=O)O)ccc4c3-c3cnn(C(C)(C)C)c3)CC2)c1` (stereo not drawn) [Compound 60]: in series [2], the EC50 lay in the range of 100 to 500 nM and the “Efficacy (%)” value is reported as “†† (150 ≥ Efficacy (%) > 100)”.
